# Source: patent US11427548B2 (Arvinas Operations, Inc., priority 2015, dated 2022)
# Like-named read-outs stand apart in the source and are kept apart here.
# Target: T1, Androgen Receptor (Homo sapiens, UniProt P10275)
# T1 construct: endogenous in cells; host or cells: VCaP cells
# T1 sequence (P10275 1-920): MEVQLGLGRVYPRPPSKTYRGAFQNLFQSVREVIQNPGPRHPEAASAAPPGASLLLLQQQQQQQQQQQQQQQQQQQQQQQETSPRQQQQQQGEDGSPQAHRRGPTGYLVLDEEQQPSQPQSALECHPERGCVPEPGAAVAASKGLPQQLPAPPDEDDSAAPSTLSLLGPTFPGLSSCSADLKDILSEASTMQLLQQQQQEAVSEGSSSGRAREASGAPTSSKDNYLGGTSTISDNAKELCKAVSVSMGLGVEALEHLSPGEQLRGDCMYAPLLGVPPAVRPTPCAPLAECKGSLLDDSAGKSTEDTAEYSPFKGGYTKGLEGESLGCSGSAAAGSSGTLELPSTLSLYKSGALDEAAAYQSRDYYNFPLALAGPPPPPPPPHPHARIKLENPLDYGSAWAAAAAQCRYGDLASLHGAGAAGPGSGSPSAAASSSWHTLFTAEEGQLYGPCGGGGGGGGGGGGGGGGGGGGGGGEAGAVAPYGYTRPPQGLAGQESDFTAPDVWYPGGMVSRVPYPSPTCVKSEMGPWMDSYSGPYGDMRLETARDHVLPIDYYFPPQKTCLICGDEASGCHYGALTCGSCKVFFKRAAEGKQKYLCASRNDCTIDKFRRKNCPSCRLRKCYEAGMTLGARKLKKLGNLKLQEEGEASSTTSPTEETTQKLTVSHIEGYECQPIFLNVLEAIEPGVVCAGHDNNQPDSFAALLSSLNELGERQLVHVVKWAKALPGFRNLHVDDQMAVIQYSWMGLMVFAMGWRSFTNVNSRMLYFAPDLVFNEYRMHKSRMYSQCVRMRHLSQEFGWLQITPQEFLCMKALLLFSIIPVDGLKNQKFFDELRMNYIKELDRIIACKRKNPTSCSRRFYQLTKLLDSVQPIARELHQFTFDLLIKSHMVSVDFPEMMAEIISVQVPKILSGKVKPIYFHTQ
# Test: Androgen Receptor ELISA assay (PathScan AR ELISA) in VCaP cells: AR degradation, Dmax and DC50
# Type: cell-based
# How it was run: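 After 24 h exposure of VCaP cells (charcoal-stripped serum, 0.1 nM R1881 agonist, 0.1% DMSO) to seven half-log compound concentrations, residual AR in lysates was measured by PathScan ELISA (TMB absorbance, 450 nm). Cells were plated at 30,000/well and grown at least 3 days beforehand.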
# [1] = VCaP cells; Table 36; read-out: VCaP DC50
# [2] = VCaP, VCaP cells; Table 36; read-out: VCaP Dmax (%)
# [3] = VCaP cells; Table 35; read-out: VCaP DC50
# [4] = VCaP, VCaP cells; Table 35; read-out: VCaP Dmax (%)
# [5] = VCaP cells; Table 34; read-out: VCaP DC50
# [6] = VCaP, VCaP cells; Table 34; read-out: VCaP Dmax (%)
# [7] = read-out: VCaP DC50; VCaP cells; Table 36
# [8] = read-out: VCaP DC50; VCaP cells; Table 34
structure (smiles),measurement,setting,value
"Cc1nc(O[C@H]2C(C)(C)[C@H](NC(=O)c3ccc(N4CCN(CCOCC(=O)N[C@H](C(=O)N5C[C@H](O)C[C@H]5C(=O)N[C@@H](C)c5ccc(-c6scnc6C)cc5)C(C)(C)C)CC4)nc3)C2(C)C)ccc1C#N [Example 682, N-((1r,3r)-3-((5-cyano-6-methylpyridin-2-yl)oxy)-2,2,4,4-tetramethylcyclobutyl)-6-(4-(2-(2-(((S)-1-((2S,4R)-4-hydroxy-2-(((S)-1-(4-(4-methylthiazol-5-yl)phenyl)ethyl)carbam-oyl)pyrrolidin-1-yl)-3,3-dimethyl-1-oxobutan-2-yl)amino)-2-oxoethoxy)ethyl)pipera-zin-1-yl)nicotinamdie]",DC50,[1],< 50 nM
same,Dmax,[2],> 71%
Cc1ncsc1-c1ccc([C@H](C)NC(=O)[C@@H]2C[C@@H](O)CN2C(=O)[C@@H](NC(=O)COCCCCCNc2ccc(C(=O)N[C@H]3C[C@H](Oc4ccc(C#N)c(Cl)c4)C3)cc2)C(C)(C)C)cc1 [Example 496],DC50,[3],< 50 nM
same,Dmax,[4],51 to 70%
Cc1ncsc1-c1ccc([C@H](C)NC(=O)[C@@H]2C[C@@H](O)CN2C(=O)[C@@H](NC(=O)COCCCOCCCCOc2ccc(N3C(=S)N(c4cnc(C#N)c(C(F)(F)F)c4)C(=O)C3(C)C)cc2)C(C)(C)C)cc1 [Example 365],DC50,[5],< 50 nM
same,Dmax,[6],> 71%
CC(C)(C)[C@H](NC(=O)COCCCCCNc1ccc(C(=O)N[C@H]2C(C)(C)[C@H](Oc3ccc(C#N)c(Cl)c3)C2(C)C)cc1)C(=O)N1C[C@H](O)C[C@H]1C(=O)NCc1ccc(-c2cncnc2)cc1 [Example 534],DC50,[3],< 50 nM
same,Dmax,[4],51 to 70%
"Cc1ncsc1-c1ccc([C@H](C)NC(=O)[C@@H]2C[C@@H](O)CN2C(=O)[C@@H](NC(=O)COCCN2C[C@@H]3C[C@H]2CN3c2ccc(C(=O)N[C@H]3C(C)(C)[C@H](Oc4ccc(C#N)c(Cl)c4)C3(C)C)cn2)C(C)(C)C)cc1 [Example 637, N-((1r,3S)-3-(3-chloro-4-cyanophenoxy)-2,2,4,4-tetramethylcyclobutyl)-6-((1S,4S)-5-(2-(2-(((S)-1-((2S,4R)-4-hydroxy-2-(((S)-1-(4-(4-methylthiazol-5-yl)phenyl)ethyl)carbam-oyl)pyrrolidin-1-yl)-3,3-dimethyl-1-oxobutan-2-yl)amino)-2-oxoethoxy)ethyl)-2,5-diazabicyclo[2.2.1]hept-an-2-yl)nicotinamide]",Dmax,"VCaP, read-out: VCaP Dmax (%)",> 71%
same,DC50,[7],< 50 nM
"Cc1ncoc1-c1ccc(CNC(=O)[C@@H]2C[C@@H](O)CN2C(=O)[C@@H](NC(=O)COCCCCOc2ccc(C(=O)N[C@H]3C(C)(C)[C@H](Oc4ccc(C#N)c(C(F)(F)F)c4)C3(C)C)cc2)C(C)(C)C)cc1 [Example 166, (2S,4R)-1-[(2S)-3,3-dimethyl-2-{2-[4-(4-{[trans-3-[4-cyano-3-(trifluoromethyl)phenoxy]-2,2,4,4-tetramethylcyclobutyl]carbamoyl}phenoxy)butoxy]acetamido}butanoyl]-4-hydroxy-N-{[4-(4-methyl-1,3-oxazol-5-yl)phenyl]methyl}pyrrolidine-2-carboxamide]",Dmax,"VCaP, highest percentage of Androgen Receptor degradation observed, VCaP cells (Table 32); read-out: VCaP Dmax (%)",51 to 70%
same,DC50,"concentration that caused 50% Androgen Receptor degradation, VCaP cells (Table 32); read-out: VCaP DC50",< 50 nM
CC(C)(C)[C@H](NC(=O)CNCCOc1ccc(-c2ccc(C(=O)N[C@H]3C(C)(C)[C@H](Oc4ccc(C#N)c(Cl)c4)C3(C)C)cc2)cc1)C(=O)N1C[C@H](O)C[C@H]1C(=O)NCc1ccc(C#N)cc1 [Example 501],DC50,[3],< 50 nM
same,Dmax,[4],51 to 70%
"Cc1ncsc1-c1ccc(CNC(=O)[C@@H]2C[C@@H](O)CN2C(=O)[C@@H](NC(=O)COCCOCCOCCOc2ccc(N3C(=S)N(c4ccc(C#N)c(C(F)(F)F)c4)C(=O)C3(C)C)cc2)C(C)(C)C)cc1 [Example 16, (2S,4R)-1-[(2S)-2-[2-(2-{2-[2-(4-{3-[4-cyano-3-(trifluoromethyl)phenyl]-5,5-dimethyl-4-oxo-2-sulfanylideneimidazolidin-1-yl}phenoxy)ethoxy]ethoxy}ethoxy)acetamido]-3,3-dimethylbutanoyl]-4-hydroxy-N-{[4-(4-methyl-1,3-thiazol-5-yl)phenyl]methyl}pyrrolidine-2-carboxamide]",Dmax,"VCaP, read-out: VCaP Dmax (%)",26 to 50%
Cc1ncsc1-c1ccc([C@H](C)NC(=O)[C@@H]2C[C@@H](O)CN2C(=O)[C@@H](NC(=O)COCCNc2ccc(-c3ccc(C(=O)N[C@H]4C(C)(C)[C@H](Oc5ccc(C#N)c(Cl)c5)C4(C)C)cc3)cn2)C(C)(C)C)cc1 [Example 445],DC50,[3],< 50 nM
same,Dmax,[4],> 71%
CC(C)(C)[C@H](NC(=O)COCCCOCCCCOc1ccc(N2C(=S)N(c3cc(Cl)c(C#N)cc3F)C(=O)C2(C)C)cc1F)C(=O)N1C[C@H](O)C[C@H]1C(=O)NCc1ccc(-c2cnco2)cc1 [Example 368],DC50,[8],< 50 nM
"Cc1ncsc1-c1ccc([C@H](C)NC(=O)C2C[C@@H](O)CN2C(=O)C(NC(=O)CN2CCN(CCCCc3ccc(C(=O)N[C@H]4C(C)(C)[C@H](Oc5ccc(C#N)c(Cl)c5)C4(C)C)cc3)CC2)C(C)(C)C)cc1 (stereo partly drawn) [Example 806, (2S,4R)-1-((S)-2-(2-(4-(4-(4-(((1r,3r)-3-(3-chloro-4-cyanophenoxy)-2,2,4,4-tetramethylcyclobutyl)carbamoyl)phenyl)butyl)piperazin-1-yl)acetamido)-3,3-dimethylbutanoyl)-4-hydroxy-N-((S)-1-(4-(4-methylthiazol-5-yl)phenyl)ethyl)pyrrolidine-2-carboxamide]",DC50,[1],< 50 nM
same,Dmax,[2],> 71%
"Cc1ncsc1-c1ccc([C@H](C)NC(=O)[C@@H]2C[C@@H](O)CN2C(=O)[C@H](C(C)C)n2cc(OCCCOCCCn3cnc(-c4ccc(N5C(=S)N(c6ccc(C#N)c(C(F)(F)F)c6)C(=O)C5(C)C)cc4)c3)cn2)cc1 [Example 648, (2S,4R)-1-((S)-2-(4-(3-(3-(4-(4-(3-(4-cyano-3-(trifluoromethyl)phenyl)-5,5-dimethyl-4-oxo-2-thioxoimidazolidin-1-yl)phenyl)-1H-imidazol-1-yl)propoxy)propoxy)-1H-pyrazol-1-yl)-3-methylbutanoyl)-4-hydroxy-N-((S)-1-(4-(4-methylthiazol-5-yl)phenyl)ethyl)pyrrolidine-2-carboxamide]",Dmax,"VCaP, read-out: VCaP Dmax (%)",< 25%
same,DC50,[7],> 501 nM
Cc1ncsc1-c1ccc(CNC(=O)[C@@H]2C[C@@H](O)CN2C(=O)[C@@H](NC(=O)COCCC2CCN(c3ccc(C(=O)N[C@H]4C(C)(C)[C@H](Oc5ccc(C#N)c(Cl)c5)C4(C)C)cc3)CC2)C(C)(C)C)cc1 [Example 404],DC50,[5],< 50 nM
same,Dmax,[6],> 71%
"Cc1ncoc1-c1ccc(CNC(=O)[C@@H]2C[C@@H](O)CN2C(=O)[C@@H](NC(=O)COCCCCOc2ccc(-c3ccc(N4C(=S)N(c5ccc(C#N)c(C(F)(F)F)c5)C(=O)C4(C)C)c(F)c3)cc2)C(C)(C)C)cc1 [Example 116, (2S,4R)-1-[(2S)-2-(2-{4-[4-(4-{3-[4-cyano-3-(trifluoromethyl)phenyl]-5,5-dimethyl-4-oxo-2-sulfanylideneimidazolidin-1-yl}-3-fluorophenyl)phen-oxy]butoxy}acetamido)-3,3-dimethylbutanoyl]-4-hydroxy-N-{[4-(4-methyl-1,3-oxazol-5-yl)phenyl]methyl}pyrrolidine-2-carboxamide]",Dmax,"VCaP, read-out: VCaP Dmax (%)",> 71%
same,DC50,"read-out: VCaP DC50; concentration that caused 50% Androgen Receptor degradation, VCaP cells (Table 32)",< 50 nM
CC(C)(C)[C@H](NC(=O)COCCCOCCCCOc1ccc(N2C(=S)N(c3ccc(C#N)c(Cl)c3)C(=O)C2(C)C)cc1)C(=O)N1C[C@H](O)C[C@H]1C(=O)NCc1ccc(-c2cnco2)cc1 [Example 337],Dmax,"VCaP, read-out: VCaP Dmax (%)",> 71%
same,DC50,[8],< 50 nM
"Cc1ncsc1-c1ccc([C@H](C)NC(=O)[C@@H]2C[C@@H](O)CN2C(=O)[C@@H](NC(=O)CCCCN2CCN(c3ccc(C(=O)N[C@H]4C(C)(C)[C@H](Oc5ccc(C#N)c(Cl)c5)C4(C)C)cn3)CC2)C(C)(C)C)cc1 [Example 779, N-((1r,3r)-3-(3-chloro-4-cyanophenoxy)-2,2,4,4-tetramethylcyclobutyl)-6-(4-(5-(((S)-1-((2S,4R)-4-hydroxy-2-(((S)-1-(4-(4-methylthiazol-5-yl)phenyl)ethyl)carbamoyl)pyrrolidin-1-yl)-3,3-dimethyl-1-oxobutan-2-yl)amino)-5-oxopentyl)piperazin-1-yl)nicotinamide]",DC50,[1],> 501 nM
same,Dmax,[2],< 25%
